Source: patent US20110070232A1, “Combination Therapy with an Antitumor Alkaloid” (Pharma Mar, S.A., priority 2008, published 2011)
Where two headings read alike, the source gives them in different places.

Assays:
BxPC-3 tumors = type: in vivo, mice; details: mg/kg/day: PM00104 0.90 IV, gemcitabine 180 IP
Experimental: Female CB17.SCID mice (Charles River Lab.) were utilized for all experiments. Animals were housed in ventilated rack caging with food and water ad libitum. The mice were acclimated for at least 5 days prior to tumor implantation with a tumor cell suspension.
The tumor model used in these studies was BxPC-3 cell line, which was obtained from the ATCC (Manassas, Va.).
Bacterial cultures were performed on aliquots of the cells prepared for implantation.
Treatments were initiated on DPI 14.
(§1) Tumor size measurements were recorded twice weekly from the treatment initiation until the termination of the study.
(§2) Mean, standard deviation and standard error of the mean were determined for tumor volume for all animal groups at all assessments. Student's t test was performed on tumor volumes at each measurement day, including at the end of the study, to determine whether there were any statistically significant differences between combination treatment groups and single monotherapy treatment groups.

MRI-H-254 tumors = type: in vivo, mice
Experimental: Female athymic nude mice (Harlan Sprague Dawley, Madison, Wis.) were utilized for all experiments. Animals were housed in ventilated rack caging with food and water ad libitum. The mice were acclimated for at least 5 days prior to tumor implantation with tumor fragments.
Treatments were initiated on DPI 16.
as §1, §2

[1] = test system: HT-29 (colon cancer) cell line; assay: IC50 determination, MIT (tetrazolium) assay, 72 h (Example 18); type: cell-based, human; details: Homo sapiens; HT-29, 72 hours of drug exposure
[2] = test system: LoVo (colon cancer) cell line; assay: as above; type: cell-based, human; details: Homo sapiens, 72 hours of drug exposure
NCI-H460 tumors = type: in vivo, mice; details: PM00104 0.9 mg/kg/day IV and/or Gemcitabine 180 mg/kg/day IP
From the text: (§3) Female athymic nude mice (Harlan Sprague Dawley, Madison, Wis.) were utilized for all experiments. Animals were housed in ventilated rack caging with food and water ad libitum. The mice were acclimated for at least 5 days prior to tumor implantation.
The tumor model used in this study was NCI-H460 cell line which is a human NSCLC cell line obtained from the ATCC (Manassas, Va.). […] Cells from in vitro passage 9 were those implanted SC into study mice.
Treatments were initiated on DPI 8.
(§4) Tumor size measurements were recorded 2-3 times/week from the treatment initiation until the termination of the study.
as §2

CaLu-6 tumors = type: in vivo, mice; details: PM00104 0.9 mg/kg/day IV and/or Gemcitabine 180 mg/kg/day IP
Experimental: as §3
The tumor model used in this study was CaLu-6 cell line which is a human lung cancer cell line obtained from the ATCC (Manassas, Va.). CaLu-6 cells were grown in Eagle's Minimum Essential Medium (MEM), 10% FBS and 2 mM L-glutamine. Cells from in vitro passage 12 were implanted SC into study mice using a 1 ml syringe with a 13G trocar: 5×10^6 cells/mouse in 0.2 ml 50% Matrigel/50% MEM medium of CaLu-6 without serum or antibiotics. Bacterial culture was taken on cells used to implant the study.
When tumors reached an appropriated volume, within the size range of 99±17 mm^3 (mean±SD), mice were randomized into the treatment and control groups based on tumor weight by using LabCat® In Life module V 8.0 SP1 tumor tracking and measurement software. Treatments were initiated on DPI 9.
as §4, §2

[3] = day 16, PM00104 0.90, cisplatin 5, irinotecan 18, paclitaxel 25 mg/kg/day
[4] = day 20, PM00104 0.90, cisplatin 5, irinotecan 18, paclitaxel 25 mg/kg/day
[5] = day 23, PM00104 0.90, cisplatin 5, irinotecan 18, paclitaxel 25 mg/kg/day
[6] = day 26, PM00104 0.90, cisplatin 5, irinotecan 18, paclitaxel 25 mg/kg/day
[7] = day 29, PM00104 0.90, cisplatin 5, irinotecan 18, paclitaxel 25 mg/kg/day
[8] = day 33, PM00104 0.90, cisplatin 5, irinotecan 18, paclitaxel 25 mg/kg/day
[9] = day 40, PM00104 0.90, cisplatin 5, irinotecan 18, paclitaxel 25 mg/kg/day
[10] = day 48, PM00104 0.90, cisplatin 5, irinotecan 18, paclitaxel 25 mg/kg/day

COc1c(C)cc2c(c1O)[C@@H]1[C@@H]3Cc4c(OC(C)=O)c(C)c5c(c4[C@H](CNC(=O)/C=C/c4cccc(C(F)(F)F)c4)N3[C@@H](O)[C@H](C2)N1C)OCO5 [PM00104]
% Inhibition (BxPC-3 tumors; day 14): −0.9% | % T/C on day (BxPC-3 tumors; day 14): 100.9% | % Inhibition (BxPC-3 tumors; day 16): −40.3% | % T/C on day (BxPC-3 tumors; day 16): 140.3% | % Inhibition (BxPC-3 tumors; day 19): −26.1% | % T/C on day (BxPC-3 tumors; day 19): 126.1% | % Inhibition (BxPC-3 tumors; day 22): −16.5% | % T/C on day (BxPC-3 tumors; day 22): 116.5% | % Inhibition (BxPC-3 tumors; day 26): 7.8% | % T/C on day (BxPC-3 tumors; day 26): 92.2% | % Inhibition (BxPC-3 tumors; day 29): −6.3% | % T/C on day (BxPC-3 tumors; day 29): 106.3% | % Inhibition (BxPC-3 tumors; day 34): −16.8% | % Inhibition (BxPC-3 tumors; day 40): −26.3% | % T/C on day (BxPC-3 tumors; day 40): 126.3% | % Inhibition (MRI-H-254 tumors; day 16, PM00104 0.90, cisplatin 3, irinotecan 10, paclitaxel 12.5 mg/kg/day): 2.0% | % Inhibition (MRI-H-254 tumors; [3]): 2.0% | % T/C (MRI-H-254 tumors; [3]): 98.0% | % Inhibition (MRI-H-254 tumors; day 20, PM00104 0.90, cisplatin 3, irinotecan 10, paclitaxel 12.5 mg/kg/day): 6.1% | % Inhibition (MRI-H-254 tumors; [4]): 6.1% | % T/C (MRI-H-254 tumors; [4]): 93.9% | % Inhibition (MRI-H-254 tumors; day 23, PM00104 0.90, cisplatin 3, irinotecan 10, paclitaxel 12.5 mg/kg/day): 43.9% | % Inhibition (MRI-H-254 tumors; [5]): 43.9% | % T/C (MRI-H-254 tumors; [5]): 56.1% | % Inhibition (MRI-H-254 tumors; day 26, PM00104 0.90, cisplatin 3, irinotecan 10, paclitaxel 12.5 mg/kg/day): 59.4% | % Inhibition (MRI-H-254 tumors; [6]): 59.4% | % T/C (MRI-H-254 tumors; [6]): 40.6% | % Inhibition (MRI-H-254 tumors; day 29, PM00104 0.90, cisplatin 3, irinotecan 10, paclitaxel 12.5 mg/kg/day): 61.7% | % Inhibition (MRI-H-254 tumors; [7]): 61.7% | % T/C (MRI-H-254 tumors; [7]): 38.3% | % Inhibition (MRI-H-254 tumors; day 33, PM00104 0.90, cisplatin 3, irinotecan 10, paclitaxel 12.5 mg/kg/day): 72.0% | % Inhibition (MRI-H-254 tumors; [8]): 72.0% | % T/C (MRI-H-254 tumors; [8]): 28.0% | % Inhibition (MRI-H-254 tumors; day 40, PM00104 0.90, cisplatin 3, irinotecan 10, paclitaxel 12.5 mg/kg/day): 81.8% | % Inhibition (MRI-H-254 tumors; [9]): 81.8% | % T/C (MRI-H-254 tumors; [9]): 18.2% | % Inhibition (MRI-H-254 tumors; day 48, PM00104 0.90, cisplatin 3, irinotecan 10, paclitaxel 12.5 mg/kg/day): 84.4% | % Inhibition (MRI-H-254 tumors; [10]): 84.4% | % T/C (MRI-H-254 tumors; [10]): 15.6% | IC50 [1]: 6 nM | IC50 [2]: 3 nM | % T/C on day 8 (NCI-H460 tumors): 103.0% | % T/C on day 11 (NCI-H460 tumors): 98.5% | % T/C on day 14 (NCI-H460 tumors): 85.6% | % T/C on day 18 (NCI-H460 tumors): 90.8% | % T/C on day 21 (NCI-H460 tumors): 81.2% | % T/C on day 25 (NCI-H460 tumors): 76.7% | % T/C on day 28 (NCI-H460 tumors): 77.3% | % T/C on day 9 (CaLu-6 tumors): 102.6% | % T/C on day 12 (CaLu-6 tumors): 77.9% | % T/C on day 15 (CaLu-6 tumors): 78.8% | % T/C on day 19 (CaLu-6 tumors): 90.6% | % T/C on day 22 (CaLu-6 tumors): 87.8% | % T/C on day 26 (CaLu-6 tumors): 87.6% | % T/C on day 29 (CaLu-6 tumors): 73.5% | % T/C on day 34 (CaLu-6 tumors): 75.8% | % T/C on day 40 (CaLu-6 tumors): 88.3%
